# Test results published in patent US20210212960A1, “IDENTIFICATION OF SEIZURE SUSCEPTIBILITY REGION IN WOLF-HIRSCHHORN SYNDROME AND TREATMENT THEREOF” (Lineagen, Inc., priority 2016, published 2021).
# Columns and labels:
# [1] = tested on: seizures in Dravet patients; conditions: cited from earlier work; for effectiveness of seizure treatment: individuals with Dravet syndrome
# [2] = tested on: seizures in individuals with WHS; assay: Online survey of 4p-Support Group parents: seizure control outcome by seizure treatment in WHS (Example 5); assay type: in vivo, human; conditions: for Seizure control outcome: Complete control, Percent / Seizure control outcome: Increased number of seizure, Percent / Seizure control outcome: Less than 50% reduction, Percent / Seizure control outcome: No change, Percent / Seizure control outcome: ≥50% reduction, Percent: percent of users of the medication
# Description: This study and all recruitment materials were approved by the University of Utah IRB (IRB_00064655). The cohort for this study was recruited from the 4p-Support Group, which is comprised of parents and caretakers of individuals with WHS. Inclusion criteria were: 1) a genetic diagnosis of WHS and 2) at least one seizure treatment had been used for seizure control. An invitation to participate in the survey was sent out to all members of the 4p-Support Group email list (representing approximately 300 individuals with WHS) and posted on the 4p-Support Group's Facebook page. Individuals self-identifying as a parent or caretaker of an individual with WHS and a history of seizures, who had tried at least one seizure treatment, were invited to participate. The invitation described the purpose of the study and provided a link to the online survey.
# The survey was developed by expanding the seizure history and treatment sections of a previous survey used by Ho et al (J Med Genet 2016; 53:256-263). The online survey was hosted by the HIPAA-compliant platform, RedCAP, and consisted of four sections. The first section collected general demographic information about the individual with WHS. Two additional questions were added to confirm whether the individual had genetic testing to confirm the diagnosis of WHS and ascertain which type of genetic testing had been completed. The second section focused on seizure history. This included age of onset, types of seizures, seizure duration, status epilepticus (seizures lasting longer than 30 minutes), and whether the individual still experiences seizures or is seizure free. The third section asked about antiepileptic drugs (AEDs) used for seizure treatment. Participants were asked to list each AED or combination of AEDs tried in chronological order. For each AED or combination of AEDs participants were asked about duration, effect on number of seizures, side effects, and reasons for discontinuing that AED or combination of AEDs. There were also questions about whether the individual was on a ketogenic diet or using cannabis oil during that time. Space for additional comments about each AED or combination of AEDs tried was also provided. The fourth section contained questions about use of ketogenic diet or cannabis oil while in the absence of AEDs. Again participants were asked about duration, effect on number of seizures, side effects, and reasons for discontinuing. In the case of cannabis oil use, participants were asked to specify whether pure cannabis oil or a THC mixture was used.
# The levels of seizure control outcome were grouped into five categories: increased number of seizure, no change, less than 50% reduction, >50% reduction, and complete control.
# When a medication was used multiple times (or when looking at combined medication), the seizure control outcome was scored as the best response among all of them. The most frequently used 5 medications reported in this cohort are phenobarbital, diazepam, lamotrigine, valproic acid (sodium valproate) and levetiracetam. We used frequency and percentages to describe the seizure control outcome of these five medications. The Kruskal-Wallis test was performed to evaluate the level of seizure control achieved with these five medications. The Wilcoxon rank sum test was performed to evaluate the hypothesis of the different seizure control outcomes between carbamazepine and levetiracetam. Comparison of the seizure control outcome based on whether levetiracetam was used first or later, was performed by the Cochran Armitage test. Statistical analysis was conducted using SAS 9.4 (SAS Inc., N.C.).
# [3] = tested on: seizures in patients with 15q Duplication syndrome; conditions: cited from earlier work
# [4] = tested on: seizures in individuals with WHS and with Dravet syndrome; conditions: individuals with WHS as well as individuals with Dravet syndrome; cited from earlier work
# [5] = tested on: seizures in individuals with WHS; assay: Parent-reported responses to seizure medications, questionnaire of the 48-individual WHS cohort (Example 1); assay type: in vivo, human; conditions: n users per drug; for Negative reports: number of unprompted parent reports of a negative reaction causing stop of the drug or no control over seizures; for Positive reports: number of unprompted parent reports of significant and observable increase in control over seizures
# Description: This questionnaire captures the health, medical profile, developmental history, and treatment responses of individuals with WHS. For the present study, the focus was on the presence or absence of seizures, age of seizure onset, types of seizures, antiepileptic drugs (AEDs) used and responses to these AEDs, as well as responses to the ketogenic diet. For cases with incomplete, contradictory or unclear parental responses, medical records of patients were consulted. When available medical records were also incomplete, ‘no answer’ is indicated in the relevant text and tables.
# AED responses were scored as negative if the patients' parents reported a negative reaction (allergic reaction or other) without prompting that caused them to stop using that drug, or if the drug conferred no control over seizures.
# [6] = tested on: seizures of this subtype of CDG; conditions: subtype of CDG caused by genes functioning like PIGG; cited from earlier work
# [7] = levetiracetam used as first AED (n = 31)
# [8] = levetiracetam used later in treatment (n = 27)
SMILES,"Seizure control outcome: Complete control, Percent [2] [%]","Seizure control outcome: Less than 50% reduction, Percent [2] [%]","Seizure control outcome: No change, Percent [2] [%]","Seizure control outcome: ≥50% reduction, Percent [2] [%]",response to seizure treatment [3],Negative reports [5],Positive reports [5],further results
NC(=O)N1c2ccccc2C=Cc2ccccc21 [Carbamazepine],18.18,18.18,27.27,9.09,generally responded well,–,–,"aggravates seizures, share of Dravet patients ([1]; Dravet syndrome): 20%; no benefit, share of Dravet patients ([1]; Dravet syndrome): 78%; Seizure control outcome: Increased number of seizure, Percent [2]: 27.27%; effect on seizures [4]: exacerbate seizures"
CN1C(=O)CN=C(c2ccccc2)c2cc(Cl)ccc21 [Diazepam],31.25,6.25,25,37.5,–,–,–,–
Nc1nnc(-c2cccc(Cl)c2Cl)c(N)n1 [Lamotrigine],31.25,6.25,12.5,50,–,–,–,effect on seizures [4]: exacerbate seizures
CC[C@@H](C(N)=O)N1CCCC1=O [Levetiracetam],56.9,8.62,5.17,29.31,generally responded well,1,4,"Complete control, First use, % [2, 7]: 61.29%; Less than 50% reduction, First use, % [2, 7]: 3.23%; No change, First use, % [2, 7]: 3.23%; ≥50% reduction, First use, % [2, 7]: 32.26%; Complete control, Later use, % [2, 8]: 51.85%; Less than 50% reduction, Later use, % [2, 8]: 14.81%; No change, Later use, % [2, 8]: 7.41%; ≥50% reduction, Later use, % [2, 8]: 25.93%"
CCC1(c2ccccc2)C(=O)NC(=O)NC1=O [Phenobarbital],61.11,11.11,13.89,11.11,–,5,0,"Seizure control outcome: Increased number of seizure, Percent [2]: 2.78%"
CC1(C)O[C@@H]2[C@@H](CO[C@@]3(COS(N)(=O)=O)OC(C)(C)O[C@@H]23)O1 [Topiramate],–,–,–,–,–,4,1,–
CCCC(CCC)C(=O)O [Valproic acid],50,9.38,9.38,31.25,generally responded well,2,2,effectiveness of seizure treatment [1]: most effective
Cc1ncc(CO)c(CO)c1O.Cl [Vitamin B6],–,–,–,–,–,–,–,efficacy in treating seizures [6]: efficacious
Br [bromide],–,–,–,–,–,–,–,effectiveness of seizure treatment [1]: most effective
